From article PMC11540844, “Enhancing transcription–replication conflict targets ecDNA-positive cancers” (Nature, 2024) come the findings set out here.

Read-outs that look alike come from different tables or passages of the source.

The subject of assay [1] is γH2AX in COLO320DM and COLO320HSR cells. In words: γH2AX IF combined with EdU labelling. Format: cell-based, human. To be noted: XL413 combined with CHIR-124. On the procedure: (§1) Coverslips were coated with 100 µg ml^−^1 poly-L-lysine overnight or 10 µg ml^−^1 laminin for 1 h at 37 °C before seeding cells. Asynchronized cells were seeded onto slides and subject to different treatment. Where indicated, EdU was added to each well at 10 µg ml^−^1 30 min before collecting samples. IF and dual-IF DNA FISH staining were performed as described before. Briefly, slides were fixed with ice-cold 4% paraformaldehyde (PFA) for 15 min, followed by permeabilization with 0.5% Triton X-100 in PBS for 15 min at room temperature. Samples were blocked with 3% BSA in PBS for 1 h at room temperature before incubation with primary antibody diluted in blocking buffer at 4 °C overnight. Dilution ratio for first antibodies was as follows: γH2Ax, 1:500; pRPA2-S33, 1:1,000; pCHK1S345, 1:250; 53BP1, 1:500; cyclin A, 1:100; pRNAPII S2/S4, 1:1,000. […]
(§2) Image analysis and quantification were performed using the open-source software CellProfiler (v.4.2.1). For foci number analysis, DAPI staining, IF staining and DNA FISH channel were analysed through automatic thresholding and segmentation to cell nuclei, pRPA2S33/γH2AX foci and DNA FISH foci respectively. […] For fluorescence intensity measurement, nuclei were called based on DAPI channel through automatic thresholding and segmentation; mean fluorescence intensity was retrieved by measuring mean fluorescence intensity within each nucleus.

The subject of assay [2] is ssDNA on ecDNA amplicon in COLO320DM and COLO320HSR cells. In words: KAS-seq (ssDNA mapping). As to conditions: triptolide treatment. Format: cell-based, human. The method, then: KAS-seq experiments were carried out as previously described[12] with modifications. Briefly, cell culture media was supplemented with 5 mM N3-kethoxal (final concentration), and cells were incubated for 10 min at 37 °C in a six-well plate. Genomic DNA was then extracted using the Monarch gDNA Purification Kit (NEB T3010S) following the standard protocol but with elution using 50 µl 25 mM K3BO3 at pH 7.0. Click reaction was carried out by mixing 87.5 µl purified DNA, 2.5 µl 20 mM DBCO-PEG4-biotin (dimethylsulfoxide (DMSO) solution, Sigma, catalogue no. 760749) and 10 µl 10× PBS in a final volume of 100 µl. The reaction was then incubated at 37 °C for 90 min. DNA was purified using AMPure XP beads by adding 50 µl beads per 100 µl reaction, washing beads on a magnetic stand twice with 80% EtOH and eluting in 130 µl 25 mM K3BO3. Purified DNA was then sheared using a Covaris E220 instrument down to around 200–400 bp size. […]
Libraries were sequenced in a paired-end format on an Illumina NextSeq instrument using NextSeq 550 High-Output Kits (2 × 36 cycles). […] Duplicate reads were removed using picard-tools (v.1.99). […]

The subject of assay [3] is pRPA2-S33 foci in COLO320HSR cells. In words: pRPA2-S33 IF (replication stress). Format: cell-based, human. The method, then:
as §1, §2

Assay [4] concerns pRPA2-S33 foci in COLO320DM cells. In words: pRPA2-S33 IF (replication stress). Format: cell-based, human. The method, then:
as §1, §2

In assay [5] the test system is pRNAPII S2/S4 in COLO320DM and COLO320HSR cells. In words: Active RNA polymerase II IF. As to conditions: triptolide treatment. Format: cell-based, human. The method, then: as §1, §2
Assay [6] relates to RS on ecDNA in GBM39ec cells. In words: pRPA2-S33 IF combined with EGFR FISH. Format: cell-based, human. The method, then: as §1, §2
The test system of assay [7] is RS on HSR in GBM39HSR cells. The experiment in a line: pRPA2-S33 IF combined with EGFR FISH. Format: cell-based, human. On the procedure:
as §1, §2

The next assay relates to pCHK1-S345 in HT29 cells. In words: AlphaLISA SureFire Ultra p-CHK1 (Ser345) assay in HT29 cells. Format: cell-based. As to conditions: Homo sapiens, HT-29, 16 h, read-out: CHK1 cellular potency AlphaLisa (IC50). On the procedure:
Compound activity in cells was measured using an AlphaLISA SureFire Ultra p-CHK1 (Ser345) assay (Perkin Elmer, catalogue no. ALSU-PCHK1-A10K). HT29 cells were cultured in McCoy 5 A medium with 10% FBS and 1% penicillin-streptomycin and seeded to 96-well plates (Corning, catalogue no. 3599). Compounds were serially diluted in DMSO over a 10-point dose range with 3-fold dilution, and compound solution was added to each well containing cells. Plates were centrifuged at 1,000 rpm for 30 s. Plates were incubated at 37 °C for 16 h. Supernatant was removed by flicking the plate against a paper towel. Wells were washed once with PBS solution. To each well was added freshly prepared lysis buffer and plates were agitated on a plate shaker at 400 rpm for 30 min. The 96-well cell plates were centrifuged at 1,500 rpm for 1 min. From each well was transferred 10 µl of the lysates to a 384-well Optiplate (Perkin Elmer, catalogue no. 6007290). To each well was added Acceptor Mix (5 µl) and the plates were sealed and wrapped in foil. Plates were agitated on a plate shaker for 2 min, then incubated at room temperature for 1 h. To each well was added Donor Mix (5 µl) and the plates were sealed and wrapped in foil. Plates were agitated on a plate shaker for 2 min, then incubated at room temperature for 1 h. AlphaLisa signal was read on an EnVision multimode plate reader (Perkin Elmer). […]

Another assay has as its system COLO320DM cells. The experiment in a line: Cell viability / CTG proliferation (CellTiter-Glo). Format: cell-based, human. To be noted: for IC50: Homo sapiens, COLO 320DM. The method, then:
(§3) Cell viability assay was performed using CellTiter-Glo (Promega, catalgoue no. G8461) as previously described. Briefly, cells were seeded into a 384-well plate one day before adding inhibitors. Equal volumes of vehicles or drugs diluted at indicated concentration were added into each well the next day, and the cells were incubated for three days. On the third day, after equilibrating plate and CellTiter-Glo reagent at room temperature for 30 min, reagent was added into each well and incubated for 15 min at room temperature. Luminescence was measured using a Synergy 2 microplate reader. Four biological replicates were performed for each condition. Data analysis was performed with GraphPad Prism (v.9.1.0).

The test system of a further assay is COLO320HSR cells. The experiment in a line: Cell viability / CTG proliferation (CellTiter-Glo). Format: cell-based, human. To be noted: Homo sapiens, COLO-320-HSR; Extended Data Fig. 8. On the procedure: as §3
The next assay deals with SNU16 cells. The experiment in a line: Cell viability (CellTiter-Glo). Format: cell-based, human. To be noted: Homo sapiens, SNU-16; Extended Data Fig. 8; read-out: IC50 SNU16. The method, then:
as §3, with “(v.9.1.0). […]” for “(v.9.1.0).”

The test system of a further assay is GBM39HSR cells. In words: Cell viability (CellTiter-Glo). Format: cell-based, human. To be noted: Homo sapiens; Extended Data Fig. 8. The method, then: as §3
The subject of another assay is GBM39ec cells. In words: Cell viability (CellTiter-Glo). Format: cell-based, human. As to conditions: Homo sapiens; Extended Data Fig. 8. The method, then:
as §3

Setting [8] is: Extended Data Fig. 8, read-out: IC50 COLO320DM.

Regarding `O=c1[nH]c(C2CCCN2)nc2c1oc1ccc(Cl)cc12` (stereo not shown) [XL413], the “effect on DNA damage induced by CHK1i (γH2AX IF)” value in assay [1] is listed as “partially blocked”.

For the compound `CC(C)[C@]12O[C@H]1[C@@H]1O[C@]13[C@]1(O[C@H]1C[C@H]1C4=C(CC[C@@]13C)C(=O)OC4)[C@@H]2O` [triptolide], the “ssDNA signals across the ecDNA amplicon (KAS-seq)” value in assay [2] is “drastic reduction”. Also, the figures for the pRPA2-S33 foci entry in assay [3] and in [4] were “negligible effect” and “significantly decreased”, respectively. For the same compound, in assay [5], the “transcriptional activity (active RNA polymerase II by IF)” value is “significantly decreased”. In addition, in assay [6], the “RS on ecDNA (pRPA2-S33 IF and EGFR FISH)” value was “significantly decreased”. In [7], the “RS on HSR (pRPA2-S33 IF and EGFR FISH)” value was “no obvious difference”.

With `N#Cc1cnc(Nc2cc(NC[C@H]3CNCCO3)c(C(F)(F)F)cn2)cn1` [SRA737], the IC50 with pCHK1-S345 in HT29 cells was determined as 1500 nM; in the assay with COLO320DM cells (COLO320DM cells, read-out: CTG proliferation ecDNA+ (IC50)), 1010 nM; with COLO320DM cells (setting [8]) it was 1110 nM; in the assay on COLO320HSR cells, 24700 nM.

For `COc1cccc(OCCCN)c1-c1cc(Nc2cnc(C#N)cn2)n[nH]1` [Ly2606368], the IC50 in the assay with COLO320DM cells (setting [8]) came out at 34.1 nM; in the assay on COLO320HSR cells it was 78.1 nM; with SNU16 cells, 8.48 nM; with GBM39HSR cells, 66.1 nM; in the assay with GBM39ec cells it was 48.8 nM.

Turning to `COc1cc2nc(-c3cc(F)ccc3O)nc(N[C@@H]3CNC[C@H]3C(C)(C)O)c2cc1OC` [CCT241533], the “differential inhibitory effect between ecDNA+ and ecDNA− isogenic cell lines” value with COLO320DM cells (COLO320DM vs COLO320HSR viability, Extended Data Fig. 8a) was “no differential inhibitory effect”. Besides, the results for the IC50 in the assay with COLO320DM cells (setting [8]) and with COLO320HSR cells were 3740 nM and 4890 nM, respectively.
